Literature values, collected in US10487314B2, “Inhibition of serotonin expression in gut enteroendocrine cells results in conversion to insulin-positive cells” (priority 2014, dated 2019).

Key:
[1] = test system: ALDH1A3 mRNA; settings: human prostate
[2] = biological target: 5-HT2B (Homo sapiens, UniProt P41595)
Chain of 5-HT2B (P41595 whole entry, species assumed): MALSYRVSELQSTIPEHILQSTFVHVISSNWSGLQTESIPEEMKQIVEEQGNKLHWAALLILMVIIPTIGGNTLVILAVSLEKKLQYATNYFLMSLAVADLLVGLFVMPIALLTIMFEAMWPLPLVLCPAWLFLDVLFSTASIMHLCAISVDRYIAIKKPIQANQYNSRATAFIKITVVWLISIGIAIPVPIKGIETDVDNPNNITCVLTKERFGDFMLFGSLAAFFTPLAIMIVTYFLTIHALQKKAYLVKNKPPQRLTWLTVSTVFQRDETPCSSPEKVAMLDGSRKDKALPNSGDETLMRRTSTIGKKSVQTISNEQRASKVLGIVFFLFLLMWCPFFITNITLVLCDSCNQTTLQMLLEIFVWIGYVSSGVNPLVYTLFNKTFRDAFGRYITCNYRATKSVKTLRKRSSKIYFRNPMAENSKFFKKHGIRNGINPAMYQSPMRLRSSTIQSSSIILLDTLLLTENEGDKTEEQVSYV

SMILES: C[C@]12CCC(=O)C[C@@H]1CC[C@@H]1[C@@H]2CC[C@]2(C)[C@@H](O)CC[C@@H]12 [Androgen dihydrotestosterone (DHT), dihydrotestosterone]
- increase in ALDH1A3 mRNA levels [1]: 4 fold

SMILES: Cc1cc([N+](=O)[O-])c(N2CCN(Cc3ccccc3)CC2)cc1N [EGIS-7625]
- selectivity over 5-HT2A [2]: high selectivity

SMILES: CC(C)c1cc(-c2ccc(F)c3ccccc23)nc(N)n1 [RS-127,445]
- affinity for 5-HT2B [2]: high affinity
- subtype selectivity ([2]; 5-HT2B versus other subtypes): 1000 ×
- oral bioavailability: orally bioavailable
